From the kinase profiling compilation of Christmann-Franck et al. (2016)

Experiments:
Assay in all cases: KINOMEscan competition binding
Details in all cases: compound 10.0 µM
ZAP70 (human) = ZAP70 (human) (UniProt P43403)
INSRR (human) = INSRR (human) (UniProt P14616)
GRK1 (human) = GRK1 (human) (UniProt Q15835)
ABL2 (human) = ABL2 (human) (UniProt P42684)
MLTK (human) = MLTK (human) (UniProt Q9NYL2)
STK38 (human) = STK38 (human) (UniProt Q15208)
MAPK4 (human) = MAPK4 (human) (UniProt P31152)
DYRK1B (human) = DYRK1B (human) (UniProt Q9Y463)
[1] = tested on: RET (human), P07949 [M918T]
ACVR2A (human) = ACVR2A (human) (UniProt P27037)
MYLK (human) = MYLK (human) (UniProt Q15746)
BLK (human) = BLK (human) (UniProt P51451)
MAP2K5 (human) = MAP2K5 (human) (UniProt Q13163)
CSNK2A1 (human) = CSNK2A1 (human) (UniProt P68400)
RIPK2 (human) = RIPK2 (human) (UniProt O43353)
ACVR1B (human) = ACVR1B (human) (UniProt P36896)
GSK3A (human) = GSK3A (human) (UniProt P49840)
SRC (human) = SRC (human) (UniProt P12931)
ACVR1 (human) = ACVR1 (human) (UniProt Q04771)
BMP2K (human) = BMP2K (human) (UniProt Q9NSY1)
PIM2 (human) = PIM2 (human) (UniProt Q9P1W9)
EIF2AK1 (human) = EIF2AK1 (human) (UniProt Q9BQI3)
BRAF (human) = BRAF (human) (UniProt P15056)
PAK6 (human) = PAK6 (human) (UniProt Q9NQU5)
SLK (human) = SLK (human) (UniProt Q9H2G2)
TSSK1B (human) = TSSK1B (human) (UniProt Q9BXA7)
CAMKK1 (human) = CAMKK1 (human) (UniProt Q8N5S9)
IRAK4 (human) = IRAK4 (human) (UniProt Q9NWZ3)
[2] = tested on: RET (human), P07949 [V804M]
MKNK2 (human) = MKNK2 (human) (UniProt Q9HBH9)
PLK3 (human) = PLK3 (human) (UniProt Q9H4B4)
ADCK4 (human) = ADCK4 (human) (UniProt Q96D53)
CDK16 (human) = CDK16 (human) (UniProt Q00536)
ACVR2B (human) = ACVR2B (human) (UniProt Q13705)
DAPK3 (human) = DAPK3 (human) (UniProt O43293)
CAMK2D (human) = CAMK2D (human) (UniProt Q13557)
CHEK2 (human) = CHEK2 (human) (UniProt O96017)
TAOK2 (human) = TAOK2 (human) (UniProt Q9UL54)
[3] = tested on: FLT3 (human), P36888 [D835Y]
[4] = tested on: EGFR (human), P00533 [T790M/L858R]
FLT1 (human) = FLT1 (human) (UniProt P17948)

Chain of MKNK2 (human) (Q9HBH9 whole entry, looked up): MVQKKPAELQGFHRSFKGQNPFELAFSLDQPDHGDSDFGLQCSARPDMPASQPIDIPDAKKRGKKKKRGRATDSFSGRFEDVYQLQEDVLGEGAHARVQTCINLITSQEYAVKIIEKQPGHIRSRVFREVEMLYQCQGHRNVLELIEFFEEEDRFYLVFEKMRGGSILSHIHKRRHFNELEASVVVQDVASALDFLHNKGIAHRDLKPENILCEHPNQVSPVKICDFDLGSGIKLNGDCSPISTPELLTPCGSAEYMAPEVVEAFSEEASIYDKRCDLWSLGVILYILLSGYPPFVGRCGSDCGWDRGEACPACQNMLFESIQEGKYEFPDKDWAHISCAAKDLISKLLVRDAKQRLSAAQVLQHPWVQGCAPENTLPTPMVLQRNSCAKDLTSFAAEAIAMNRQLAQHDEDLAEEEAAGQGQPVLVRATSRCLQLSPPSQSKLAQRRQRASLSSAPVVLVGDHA
Chain of MAP2K5 (human) (Q13163 whole entry, looked up): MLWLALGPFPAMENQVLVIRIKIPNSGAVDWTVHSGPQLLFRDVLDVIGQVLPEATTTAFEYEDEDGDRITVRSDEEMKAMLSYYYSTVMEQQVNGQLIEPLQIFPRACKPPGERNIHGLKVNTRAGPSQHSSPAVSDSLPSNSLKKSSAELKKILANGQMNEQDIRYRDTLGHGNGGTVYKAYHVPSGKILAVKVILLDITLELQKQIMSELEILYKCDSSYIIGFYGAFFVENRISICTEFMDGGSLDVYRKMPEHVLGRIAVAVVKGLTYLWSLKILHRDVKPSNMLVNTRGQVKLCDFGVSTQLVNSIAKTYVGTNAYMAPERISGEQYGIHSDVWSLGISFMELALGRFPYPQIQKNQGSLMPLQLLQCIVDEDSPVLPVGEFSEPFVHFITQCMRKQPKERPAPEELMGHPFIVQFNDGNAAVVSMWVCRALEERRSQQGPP
Chain of PLK3 (human) (Q9H4B4 whole entry, looked up): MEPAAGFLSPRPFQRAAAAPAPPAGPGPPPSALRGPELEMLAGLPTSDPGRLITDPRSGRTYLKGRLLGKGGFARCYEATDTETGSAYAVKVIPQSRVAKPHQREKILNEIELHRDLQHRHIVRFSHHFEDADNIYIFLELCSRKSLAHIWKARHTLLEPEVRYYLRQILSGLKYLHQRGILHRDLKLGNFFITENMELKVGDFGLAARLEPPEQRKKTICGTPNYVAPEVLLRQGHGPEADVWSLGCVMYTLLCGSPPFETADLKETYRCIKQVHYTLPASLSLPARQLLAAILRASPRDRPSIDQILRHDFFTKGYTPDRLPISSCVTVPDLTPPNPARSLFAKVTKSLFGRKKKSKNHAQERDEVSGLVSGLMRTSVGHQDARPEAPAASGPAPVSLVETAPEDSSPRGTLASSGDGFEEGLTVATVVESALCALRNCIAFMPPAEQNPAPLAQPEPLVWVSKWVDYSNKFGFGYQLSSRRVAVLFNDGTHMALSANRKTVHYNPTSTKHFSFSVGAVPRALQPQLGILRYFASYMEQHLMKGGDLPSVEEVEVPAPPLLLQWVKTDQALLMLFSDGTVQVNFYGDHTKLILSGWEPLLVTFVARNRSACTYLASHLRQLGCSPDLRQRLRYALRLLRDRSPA
Chain of PAK6 (human) (Q9NQU5 whole entry, looked up): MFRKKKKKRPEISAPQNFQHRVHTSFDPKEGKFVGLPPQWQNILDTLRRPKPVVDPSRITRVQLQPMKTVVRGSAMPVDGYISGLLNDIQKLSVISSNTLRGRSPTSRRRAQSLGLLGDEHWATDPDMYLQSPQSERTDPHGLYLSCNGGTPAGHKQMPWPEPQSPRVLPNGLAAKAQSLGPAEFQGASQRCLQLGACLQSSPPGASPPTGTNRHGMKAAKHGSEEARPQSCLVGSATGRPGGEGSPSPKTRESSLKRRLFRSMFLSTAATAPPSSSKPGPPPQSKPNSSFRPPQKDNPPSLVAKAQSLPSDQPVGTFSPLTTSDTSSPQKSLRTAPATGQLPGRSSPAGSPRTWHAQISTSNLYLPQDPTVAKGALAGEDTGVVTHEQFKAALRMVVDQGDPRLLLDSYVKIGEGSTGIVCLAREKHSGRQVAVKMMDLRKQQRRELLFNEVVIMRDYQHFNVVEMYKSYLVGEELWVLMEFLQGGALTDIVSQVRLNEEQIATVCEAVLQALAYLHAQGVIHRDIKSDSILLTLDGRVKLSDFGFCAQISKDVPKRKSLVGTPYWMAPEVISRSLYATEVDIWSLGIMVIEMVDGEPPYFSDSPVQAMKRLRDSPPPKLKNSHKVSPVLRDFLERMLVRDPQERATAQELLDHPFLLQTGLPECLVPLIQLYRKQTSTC
Chain of INSRR (human) (P14616 whole entry, looked up): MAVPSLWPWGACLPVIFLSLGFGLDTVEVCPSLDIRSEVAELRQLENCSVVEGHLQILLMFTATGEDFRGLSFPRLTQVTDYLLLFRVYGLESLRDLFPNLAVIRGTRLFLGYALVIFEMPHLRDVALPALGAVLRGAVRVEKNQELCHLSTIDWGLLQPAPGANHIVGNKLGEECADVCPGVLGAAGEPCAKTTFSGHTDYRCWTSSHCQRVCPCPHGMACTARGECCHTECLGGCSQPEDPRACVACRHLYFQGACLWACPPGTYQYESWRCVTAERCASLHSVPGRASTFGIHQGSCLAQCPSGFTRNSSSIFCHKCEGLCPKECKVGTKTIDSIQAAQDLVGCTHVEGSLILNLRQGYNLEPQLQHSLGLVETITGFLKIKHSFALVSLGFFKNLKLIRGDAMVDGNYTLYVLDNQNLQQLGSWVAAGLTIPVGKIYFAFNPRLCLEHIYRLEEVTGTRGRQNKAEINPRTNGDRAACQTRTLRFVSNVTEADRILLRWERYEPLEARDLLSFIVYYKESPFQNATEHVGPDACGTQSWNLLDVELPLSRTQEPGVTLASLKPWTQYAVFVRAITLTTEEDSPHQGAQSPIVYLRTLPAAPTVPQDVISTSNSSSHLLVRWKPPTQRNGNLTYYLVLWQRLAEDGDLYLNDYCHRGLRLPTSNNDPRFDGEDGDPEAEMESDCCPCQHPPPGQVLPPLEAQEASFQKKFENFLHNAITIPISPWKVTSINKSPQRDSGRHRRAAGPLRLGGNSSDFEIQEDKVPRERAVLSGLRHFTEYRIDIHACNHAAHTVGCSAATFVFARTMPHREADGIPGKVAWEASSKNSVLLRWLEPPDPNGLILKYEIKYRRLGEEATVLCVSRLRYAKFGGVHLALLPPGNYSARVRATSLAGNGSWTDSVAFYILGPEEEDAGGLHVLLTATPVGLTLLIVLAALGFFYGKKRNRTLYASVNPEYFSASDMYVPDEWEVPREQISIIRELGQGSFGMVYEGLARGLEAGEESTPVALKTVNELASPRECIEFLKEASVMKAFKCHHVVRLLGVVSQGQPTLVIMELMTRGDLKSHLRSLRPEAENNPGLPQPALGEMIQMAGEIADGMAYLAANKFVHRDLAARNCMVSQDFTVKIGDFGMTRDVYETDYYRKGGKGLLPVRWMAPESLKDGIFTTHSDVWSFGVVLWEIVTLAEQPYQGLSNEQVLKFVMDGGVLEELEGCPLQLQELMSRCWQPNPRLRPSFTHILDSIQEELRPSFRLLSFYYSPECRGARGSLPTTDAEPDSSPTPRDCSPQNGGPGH
Chain of DYRK1B (human) (Q9Y463 whole entry, looked up): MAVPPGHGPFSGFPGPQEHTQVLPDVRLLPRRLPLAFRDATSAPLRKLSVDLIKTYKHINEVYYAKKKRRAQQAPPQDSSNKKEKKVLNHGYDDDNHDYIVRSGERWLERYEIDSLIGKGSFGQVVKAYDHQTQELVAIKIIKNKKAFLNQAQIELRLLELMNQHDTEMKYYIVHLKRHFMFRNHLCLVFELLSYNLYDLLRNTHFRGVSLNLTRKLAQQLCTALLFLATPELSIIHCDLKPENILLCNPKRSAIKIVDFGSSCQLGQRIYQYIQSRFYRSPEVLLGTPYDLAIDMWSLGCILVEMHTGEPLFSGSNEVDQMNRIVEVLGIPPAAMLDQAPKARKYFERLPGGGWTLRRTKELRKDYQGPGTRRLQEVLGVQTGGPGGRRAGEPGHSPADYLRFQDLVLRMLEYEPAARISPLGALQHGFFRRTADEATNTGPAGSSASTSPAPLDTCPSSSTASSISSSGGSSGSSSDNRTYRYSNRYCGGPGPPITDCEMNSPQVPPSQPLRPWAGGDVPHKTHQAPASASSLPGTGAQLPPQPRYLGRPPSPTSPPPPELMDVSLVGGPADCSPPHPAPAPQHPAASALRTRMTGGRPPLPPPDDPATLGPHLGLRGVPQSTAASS
Chain of CSNK2A1 (human) (P68400 whole entry, looked up): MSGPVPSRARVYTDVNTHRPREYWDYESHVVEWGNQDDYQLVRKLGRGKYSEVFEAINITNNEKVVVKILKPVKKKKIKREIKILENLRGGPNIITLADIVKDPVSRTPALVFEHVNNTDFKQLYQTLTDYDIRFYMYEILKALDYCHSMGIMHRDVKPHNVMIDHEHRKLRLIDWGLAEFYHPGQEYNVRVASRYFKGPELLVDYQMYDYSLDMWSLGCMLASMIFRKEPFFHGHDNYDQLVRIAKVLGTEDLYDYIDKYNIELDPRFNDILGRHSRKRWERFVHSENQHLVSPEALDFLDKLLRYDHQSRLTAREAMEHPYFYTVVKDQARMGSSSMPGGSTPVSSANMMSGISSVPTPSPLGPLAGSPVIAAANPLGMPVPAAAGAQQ
Chain of DAPK3 (human) (O43293 whole entry, looked up): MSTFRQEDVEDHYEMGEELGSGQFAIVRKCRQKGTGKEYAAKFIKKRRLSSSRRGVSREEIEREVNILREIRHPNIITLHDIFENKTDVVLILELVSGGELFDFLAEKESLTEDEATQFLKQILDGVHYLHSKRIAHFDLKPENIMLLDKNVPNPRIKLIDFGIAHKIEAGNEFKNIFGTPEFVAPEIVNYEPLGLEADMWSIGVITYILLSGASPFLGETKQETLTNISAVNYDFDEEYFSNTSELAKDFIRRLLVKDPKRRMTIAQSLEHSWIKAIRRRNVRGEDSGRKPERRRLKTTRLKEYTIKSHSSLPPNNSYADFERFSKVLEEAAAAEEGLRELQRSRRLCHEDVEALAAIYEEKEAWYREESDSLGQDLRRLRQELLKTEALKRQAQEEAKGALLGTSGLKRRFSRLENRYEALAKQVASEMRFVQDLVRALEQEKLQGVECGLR

With `CCC(=O)N1CCN(c2ccc(-n3c(=O)ccc4cnc5ccc(-c6cnc7ccccc7c6)cc5c43)cc2C(F)(F)F)CC1` the kinase still bound, per cent of control (ZAP70 (human)) was 100%, the kinase still bound, per cent of control (INSRR (human)) was 100% and the kinase still bound, per cent of control (GRK1 (human)) was 99%. It also gave a kinase still bound, per cent of control (ABL2 (human)) of 99%, a kinase still bound, per cent of control (MLTK (human)) of 22% and a kinase still bound, per cent of control (STK38 (human)) of 100%. The kinase still bound, per cent of control (MAPK4 (human)) was 80%, the kinase still bound, per cent of control (DYRK1B (human)) was 87% and the kinase still bound, per cent of control [1] was 51%. For the same molecule, the kinase still bound, per cent of control (ACVR2A (human)) was 47%, the per cent of control (MYLK (human)) was 87% and the kinase still bound, per cent of control (BLK (human)) was 75%. The kinase still bound, per cent of control (MAP2K5 (human)) was 100%, the kinase still bound, per cent of control (CSNK2A1 (human)) was 94% and the kinase still bound, per cent of control (RIPK2 (human)) was 44%. The kinase still bound, per cent of control (ACVR1B (human)) was 45%, the kinase still bound, per cent of control (GSK3A (human)) was 93% and the kinase still bound, per cent of control (SRC (human)) was 95%. The kinase still bound, per cent of control (ACVR1 (human)) was 28%, the kinase still bound, per cent of control (BMP2K (human)) was 100% and the kinase still bound, per cent of control (PIM2 (human)) was 62%. For the same molecule, the kinase still bound, per cent of control (EIF2AK1 (human)) was 57%, the kinase still bound, per cent of control (BRAF (human)) was 59% and the kinase still bound, per cent of control (PAK6 (human)) was 77%. For the same molecule, the kinase still bound, per cent of control (SLK (human)) was 94%, the kinase still bound, per cent of control (TSSK1B (human)) was 100% and the kinase still bound, per cent of control (CAMKK1 (human)) was 80%. The kinase still bound, per cent of control (IRAK4 (human)) was 90%, the kinase still bound, per cent of control [2] was 69% and the kinase still bound, per cent of control (MKNK2 (human)) was 54%. It also gave a kinase still bound, per cent of control (PLK3 (human)) of 87%, a kinase still bound, per cent of control (ADCK4 (human)) of 15% and a per cent of control (CDK16 (human)) of 91%. For the same molecule, the kinase still bound, per cent of control (ACVR2B (human)) was 42%, the kinase still bound, per cent of control (DAPK3 (human)) was 82% and the kinase still bound, per cent of control (CAMK2D (human)) was 72%. For the same molecule, the kinase still bound, per cent of control (CHEK2 (human)) was 100%, the kinase still bound, per cent of control (TAOK2 (human)) was 84% and the kinase still bound, per cent of control [3] was 16%. The kinase still bound, per cent of control [4] was 100% and the kinase still bound, per cent of control (FLT1 (human)) was 79%.
Work on `CC(C)n1nc(-c2cc3cc(O)ccc3[nH]2)c2c(N)ncnc21` yielded a kinase still bound, per cent of control (ZAP70 (human)) of 99%, a kinase still bound, per cent of control (INSRR (human)) of 100% and a kinase still bound, per cent of control (GRK1 (human)) of 16%. The kinase still bound, per cent of control (ABL2 (human)) was 28%, the kinase still bound, per cent of control (MLTK (human)) was 29% and the kinase still bound, per cent of control (STK38 (human)) was 60%. The kinase still bound, per cent of control (MAPK4 (human)) was 75%, the kinase still bound, per cent of control (DYRK1B (human)) was 59% and the kinase still bound, per cent of control [1] was 0%. It also gave a kinase still bound, per cent of control (ACVR2A (human)) of 0.5%, a per cent of control (MYLK (human)) of 0.9% and a kinase still bound, per cent of control (BLK (human)) of 1.2%. For the same molecule, the kinase still bound, per cent of control (MAP2K5 (human)) was 0.35%, the kinase still bound, per cent of control (CSNK2A1 (human)) was 16% and the kinase still bound, per cent of control (RIPK2 (human)) was 0.8%. The kinase still bound, per cent of control (ACVR1B (human)) was 11%, the kinase still bound, per cent of control (GSK3A (human)) was 74% and the kinase still bound, per cent of control (ACVR1 (human)) was 0.1%. It also gave a kinase still bound, per cent of control (BMP2K (human)) of 33%, a kinase still bound, per cent of control (PIM2 (human)) of 0.6% and a kinase still bound, per cent of control (EIF2AK1 (human)) of 93%. The kinase still bound, per cent of control (BRAF (human)) was 5.8%, the kinase still bound, per cent of control (PAK6 (human)) was 23% and the kinase still bound, per cent of control (SLK (human)) was 0.2%. The kinase still bound, per cent of control (TSSK1B (human)) was 83%, the kinase still bound, per cent of control (CAMKK1 (human)) was 49% and the kinase still bound, per cent of control (IRAK4 (human)) was 44%. It also gave a kinase still bound, per cent of control [2] of 12%, a kinase still bound, per cent of control (MKNK2 (human)) of 4.5% and a kinase still bound, per cent of control (PLK3 (human)) of 33%. It also gave a kinase still bound, per cent of control (ADCK4 (human)) of 13%, a per cent of control (CDK16 (human)) of 98% and a kinase still bound, per cent of control (ACVR2B (human)) of 2%. It also gave a kinase still bound, per cent of control (DAPK3 (human)) of 2.8%, a kinase still bound, per cent of control (CAMK2D (human)) of 69% and a kinase still bound, per cent of control (CHEK2 (human)) of 19%. For the same molecule, the kinase still bound, per cent of control (TAOK2 (human)) was 1.2%, the kinase still bound, per cent of control [3] was 7% and the kinase still bound, per cent of control (FLT1 (human)) was 25%.
